Test results reported in publication PMC9234961 (Journal of Medicinal Chemistry, 2022).
Where “and” joins values, the source holds several entries; their conditions need not be identical. Identical values can stand only once.

How the values were obtained:
human BCL6 BTB domain = human BCL6 BTB domain (Homo sapiens, UniProt P41182); assay: biochemical; conditions: BCL6 TR-FRET IC50 individual replicates, single replicate values
Protocol: Assays were performed in a 384-well black Proxiplate (Perkin Elmer) containing 1 nM Trx-6xHis-BCL6 (in
anti-6xHis-Terbium cryptate (CisBio Bioassays, France), in assay buffer (25 mM Hepes pH8, 100 mM NaCl,
0.05% Tween20, 0.5 mM TCEP, 0.05% bovine serum albumin). Test compounds in DMSO or DMSO alone
were added to the wells using an ECHO550 acoustic dispenser (Labcyte Inc) to give the appropriate test
concentration in 0.7% v/v DMSO final. After 2 hours incubation at room temperature the plate was read
The % inhibition at each concentration was calculated by normalising FRET ratio to the
appropriate high (DMSO with all reagents) and low (DMSO without BCL6) controls. IC50 values were
determined using GraphPad Prism 6.0 or Dotmatics (Bishops Stortford, UK) software by fitting the
normalised data to a sigmoidal four-parameter logistic fit equation.

KvLQT1/minK = KvLQT1/minK (Homo sapiens, UniProt P51787); assay: SAFETYScan Ion Channel, Opener; type: cell-based
Chain of KvLQT1/minK (P51787 whole entry): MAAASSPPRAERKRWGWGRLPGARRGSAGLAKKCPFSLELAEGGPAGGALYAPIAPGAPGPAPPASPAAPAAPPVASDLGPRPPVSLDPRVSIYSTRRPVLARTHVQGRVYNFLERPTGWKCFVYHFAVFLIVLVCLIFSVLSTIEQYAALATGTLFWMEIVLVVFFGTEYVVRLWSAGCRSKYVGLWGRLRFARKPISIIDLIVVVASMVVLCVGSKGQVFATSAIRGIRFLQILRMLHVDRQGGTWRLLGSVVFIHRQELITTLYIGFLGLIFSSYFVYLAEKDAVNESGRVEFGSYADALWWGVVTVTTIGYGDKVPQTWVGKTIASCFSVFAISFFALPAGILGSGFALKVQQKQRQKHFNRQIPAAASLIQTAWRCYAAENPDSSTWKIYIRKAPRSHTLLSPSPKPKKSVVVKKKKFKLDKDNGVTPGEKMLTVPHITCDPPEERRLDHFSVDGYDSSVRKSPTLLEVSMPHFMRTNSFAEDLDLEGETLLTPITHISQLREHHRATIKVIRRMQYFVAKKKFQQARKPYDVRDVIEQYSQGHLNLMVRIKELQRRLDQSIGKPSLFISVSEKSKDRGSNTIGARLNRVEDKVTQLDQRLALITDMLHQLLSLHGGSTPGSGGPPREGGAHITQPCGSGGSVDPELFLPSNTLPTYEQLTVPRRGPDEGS
Source text: (§1) Supplement jm1c02175_si_002.xlsx, sheet "SAFETYScan" | column: RC50 (uM); Max Response

nAChR(a4/b2) = nAChR(a4/b2) (Homo sapiens, UniProt P17787+P43681); assay: SAFETYScan Ion Channel, Opener; type: cell-based
Chain of nAChR(a4/b2) (P43681 29-627 limits assumed): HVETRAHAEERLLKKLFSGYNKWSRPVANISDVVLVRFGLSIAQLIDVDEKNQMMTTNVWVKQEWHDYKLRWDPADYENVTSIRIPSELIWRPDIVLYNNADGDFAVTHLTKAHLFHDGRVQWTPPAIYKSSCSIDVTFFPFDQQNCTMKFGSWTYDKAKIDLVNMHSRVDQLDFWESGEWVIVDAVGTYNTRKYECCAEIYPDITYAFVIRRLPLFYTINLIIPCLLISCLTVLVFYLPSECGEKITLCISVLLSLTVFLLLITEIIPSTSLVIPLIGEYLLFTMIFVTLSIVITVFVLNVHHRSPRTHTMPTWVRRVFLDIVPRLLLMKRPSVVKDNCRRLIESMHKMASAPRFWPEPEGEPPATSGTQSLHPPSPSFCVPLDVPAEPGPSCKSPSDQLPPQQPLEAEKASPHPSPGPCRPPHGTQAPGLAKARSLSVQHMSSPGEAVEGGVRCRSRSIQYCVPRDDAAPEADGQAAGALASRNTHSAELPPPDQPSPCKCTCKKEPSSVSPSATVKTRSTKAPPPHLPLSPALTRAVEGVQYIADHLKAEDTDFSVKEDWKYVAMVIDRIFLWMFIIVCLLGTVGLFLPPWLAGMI
Chain of nAChR(a4/b2) (P17787 26-502): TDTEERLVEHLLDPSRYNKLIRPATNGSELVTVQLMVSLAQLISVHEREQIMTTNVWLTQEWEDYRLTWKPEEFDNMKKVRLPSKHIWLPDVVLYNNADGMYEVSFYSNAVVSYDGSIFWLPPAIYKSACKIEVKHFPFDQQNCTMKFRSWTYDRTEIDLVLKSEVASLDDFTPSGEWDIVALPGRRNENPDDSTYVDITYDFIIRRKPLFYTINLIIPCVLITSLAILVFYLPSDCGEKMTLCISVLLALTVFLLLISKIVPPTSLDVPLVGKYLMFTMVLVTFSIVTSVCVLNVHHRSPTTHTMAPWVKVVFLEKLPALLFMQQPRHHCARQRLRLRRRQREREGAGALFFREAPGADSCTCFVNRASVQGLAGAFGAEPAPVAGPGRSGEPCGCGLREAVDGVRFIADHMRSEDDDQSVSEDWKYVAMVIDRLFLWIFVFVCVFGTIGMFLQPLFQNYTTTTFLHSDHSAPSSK
Source text: as §1

HTR3A = molecular target: T1, HTR3A (Homo sapiens, UniProt P46098); assay: SAFETYScan Ion Channel, Opener; type: cell-based
T1 sequence (P46098 24-478): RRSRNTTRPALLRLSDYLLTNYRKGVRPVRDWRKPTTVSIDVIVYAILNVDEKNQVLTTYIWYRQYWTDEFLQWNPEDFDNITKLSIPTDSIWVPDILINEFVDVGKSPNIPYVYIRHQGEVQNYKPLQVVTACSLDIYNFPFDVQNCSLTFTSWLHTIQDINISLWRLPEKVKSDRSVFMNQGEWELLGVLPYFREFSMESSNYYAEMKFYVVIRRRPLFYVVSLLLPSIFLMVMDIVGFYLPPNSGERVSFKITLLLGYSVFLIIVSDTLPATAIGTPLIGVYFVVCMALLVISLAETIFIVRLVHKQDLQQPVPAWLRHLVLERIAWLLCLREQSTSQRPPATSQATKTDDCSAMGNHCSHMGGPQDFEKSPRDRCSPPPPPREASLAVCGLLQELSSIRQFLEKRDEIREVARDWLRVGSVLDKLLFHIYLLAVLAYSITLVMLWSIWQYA
Source text: as §1

NMDAR (1A/2B) = NMDAR (1A/2B) (Homo sapiens, UniProt Q05586+Q13224); assay: SAFETYScan Ion Channel, Opener; type: cell-based
Chain of NMDAR (1A/2B) (Q13224 27-1484, other chains not shown): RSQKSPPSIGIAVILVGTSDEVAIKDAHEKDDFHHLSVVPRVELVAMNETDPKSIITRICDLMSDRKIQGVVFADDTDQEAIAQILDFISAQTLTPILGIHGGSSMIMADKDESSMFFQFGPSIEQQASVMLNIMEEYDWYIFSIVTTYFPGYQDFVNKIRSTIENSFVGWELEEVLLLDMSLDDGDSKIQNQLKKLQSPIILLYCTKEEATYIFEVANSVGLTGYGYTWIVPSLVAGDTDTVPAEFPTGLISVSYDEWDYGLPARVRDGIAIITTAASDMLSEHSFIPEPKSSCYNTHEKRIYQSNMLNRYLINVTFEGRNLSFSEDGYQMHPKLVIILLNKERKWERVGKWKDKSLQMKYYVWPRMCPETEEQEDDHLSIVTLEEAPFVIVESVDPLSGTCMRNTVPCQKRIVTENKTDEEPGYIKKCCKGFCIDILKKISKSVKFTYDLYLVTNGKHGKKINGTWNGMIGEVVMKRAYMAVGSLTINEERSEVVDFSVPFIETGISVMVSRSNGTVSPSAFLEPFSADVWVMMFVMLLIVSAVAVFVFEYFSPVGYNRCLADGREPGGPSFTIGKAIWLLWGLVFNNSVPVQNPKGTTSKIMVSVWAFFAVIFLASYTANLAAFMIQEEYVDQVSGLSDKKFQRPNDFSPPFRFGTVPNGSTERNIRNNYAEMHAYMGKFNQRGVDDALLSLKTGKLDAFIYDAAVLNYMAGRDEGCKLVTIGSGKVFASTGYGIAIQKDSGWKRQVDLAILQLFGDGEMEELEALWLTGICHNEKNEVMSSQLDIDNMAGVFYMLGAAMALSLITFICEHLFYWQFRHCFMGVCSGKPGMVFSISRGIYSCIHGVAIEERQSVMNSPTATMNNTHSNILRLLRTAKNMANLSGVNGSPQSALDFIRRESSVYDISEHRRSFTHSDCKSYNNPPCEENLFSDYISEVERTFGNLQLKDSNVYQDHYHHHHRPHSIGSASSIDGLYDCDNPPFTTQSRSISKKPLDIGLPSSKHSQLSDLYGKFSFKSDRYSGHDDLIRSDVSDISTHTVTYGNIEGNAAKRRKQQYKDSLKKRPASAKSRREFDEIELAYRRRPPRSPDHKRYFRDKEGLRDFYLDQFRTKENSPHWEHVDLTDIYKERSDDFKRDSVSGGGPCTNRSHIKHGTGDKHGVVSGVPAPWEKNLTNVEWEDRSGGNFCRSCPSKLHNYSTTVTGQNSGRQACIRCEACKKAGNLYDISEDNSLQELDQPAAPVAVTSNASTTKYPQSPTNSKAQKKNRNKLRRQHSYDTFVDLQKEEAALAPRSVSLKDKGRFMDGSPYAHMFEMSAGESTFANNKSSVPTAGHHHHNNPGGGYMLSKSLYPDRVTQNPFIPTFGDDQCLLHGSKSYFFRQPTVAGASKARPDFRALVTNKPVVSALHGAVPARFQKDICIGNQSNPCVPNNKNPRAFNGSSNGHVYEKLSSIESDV
Source text: as §1

C[C@H]1C[C@@H](O)CN(c2ncc(Cl)c(Nc3ccc4c(c3)c3c(c(=O)n4C)OCC(F)(F)[C@H](C4CC4)N3)n2)C1 [12a CCT373566, (S)-10-((5-Chloro-2-((3R,5S)-3-hydroxy-5-methylpiperidin-1-yl)pyrimidin-4-yl)amino)-2-cyclopropyl-3,3-difluoro-7-methyl-1,2,3,4-tetrahydro-[1,4]oxazepino[2,3-c]quinolin-6(7H)-one]
IC50 (human BCL6 BTB domain): 3.8 nM and 1.9 nM and 1.7 nM and 2.6 nM (3×) and 2.4 nM and 2.9 nM and 1.8 nM (3×) and 1.2 nM and 2.7 nM
Emax (KvLQT1/minK; read-out: Max Response): 3.79%
EC50 (KvLQT1/minK; read-out: RC50 (EC50)): > 10 µM
Emax (nAChR(a4/b2); read-out: Max Response): 0%
EC50 (nAChR(a4/b2); read-out: RC50 (EC50)): > 10 µM
Emax (HTR3A; read-out: Max Response): 1.5%
EC50 (HTR3A; read-out: RC50 (EC50)): > 10 µM
Emax (NMDAR (1A/2B); read-out: Max Response): 1.31%
EC50 (NMDAR (1A/2B); read-out: RC50 (EC50)): > 10 µM
